Measured values: patent US20150253330A1, “PRE-SELECTION OF SUBJECTS FOR THERAPEUTIC TREATMENT WITH AN HSP90 INHIBITOR BASED ON HYPOXIC STATUS” (Synta Pharmaceuticals Corp., priority 2012, published 2015)

Legend:
H2030 cells = test: Combinatorial viability analysis, 72 hours; format: cell-based
Description: (§1) For combinatorial analysis, cells were seeded in 96-well plates at a predetermined, optimum growth density for 24 h prior to the addition of drug or vehicle to the culture medium. Drug combinations were applied at a non-constant ratio over a range of concentrations for 72 or 96 hours. […] Cell viability was assessed by either AlamarBlue® (Invitrogen, Carlsbad, Calif.) or CellTiter-Glo® assays and normalized to vehicle controls. For each combination study, the level of growth inhibition (fraction affected) is plotted relative to vehicle control. Data are presented as one relevant combination point and the corresponding single agent data for each cell line tested.

H358 cells = test: Combinatorial viability analysis, 72 hours; format: cell-based
Description: as §1

A549 cells = test: Combinatorial viability analysis, 72 hours; format: cell-based
Description: as §1

H2009 cells = test: Combinatorial viability analysis, 72 hours; format: cell-based
Description: as §1

GCIY = test: 72 hr viability by Syto60, gastric cell line; format: cell-based; conditions: Homo sapiens, Syto60 (lower), read-out: ganetespib IC50
SNU-1 = test: 72 hr viability by Syto60, gastric cell line; format: cell-based; conditions: Homo sapiens, SNU1, Syto60 (lower), read-out: ganetespib IC50
locally advanced or MBC = test: Phase 2 trial in metastatic breast cancer (MBC); format: in vivo, human
Description: Patients with locally advanced or MBC were treated with single agent of ganetespib at 200 mg/m^2 on a cycle of once weekly for 3 weeks, one week off, on a 28 day cycle. The primary endpoint of the trial was overall response rate using RECIST 1.1. Patients with HER2+ breast cancer were required to have received prior therapy with trastuzumab. No more than 3 lines of chemotherapy in the metastatic setting were permitted, but there was no limit on prior lines of hormone therapy. Patients were evaluated for response after 2 cycles. The trial used a Simon two-stage design requiring at least 3 responses among the first 22 patients, to allow expansion to a total of 40 patients. A total of 22 patients were treated with a median age of 51 years (38 to 70) and the following subtypes: 13 HER2+ (10 ER+/HER2+; 3 ER−/HER2+), 6 ER+/HER2−, and 3 ER−/PR−/HER2− (TNBC).

[1] = system: Detroit 562 H/N cancer cells; test: Single agent viability assay, 72 hr, head and neck cancer cells; format: cell-based
From the text: Head and neck (H/N) cancer refers to a group of biologically similar cancers originating from the upper autodigestive tract. First line therapies include EGFR inhibitors and platins. Modulation of EGFR and other client proteins by ganetespib was investigated in Detroit 562 H/N cancer cells.

[2] = system: KRAS mutant NSCLC cell lines; test: Combinatorial viability analysis in KRAS mutant NSCLC cell lines; format: cell-based
Description: as §1

[3] = system: human KRAS mutant NSCLC tumor xenografts; test: KRAS mutant NSCLC tumor xenografts in vivo; set-up: species or system mice
From the text: Female immunodeficient CD-1 (nude) mice (Charles River Laboratories, Wilmington, Mass.) were maintained in a pathogen-free environment, and all in vivo procedures were approved by the Synta Pharmaceuticals Corp. Institutional Animal Care and Use Committee. A549 NSCLC cells (7.5×10^6) were subcutaneously implanted into the animals. Mice bearing established tumors (100-200 mm^3) were randomized into treatment groups of 8 and i.v. dosed via the tail vein with either vehicle, ganetespib formulated in 10/18 DRD (10% DMSO, 18% Cremophor RH 40, 3.6% dextrose, 68.4% water) or p.o. dosed with BEZ235 formulated in PEG300/NMP (90% PEG300, 10% N-Methylpyrrolidone). Animals were treated with ganetespib at 50 mg/kg weekly or BEZ235 at 10 mg/kg 5 times a week, either alone or in combination. Tumor growth inhibition was determined as described previously. See Proia et al, PLoS One. 2011; 6(4):e18552.

MDA-MB-231 = test: 72 hr viability by CTG, breast cancer cell line; format: cell-based
Description: (§2) Breast cancer is a heterogeneous disease historically broken down into 4 subtypes. Various compounds were tested for their effects in cell viability assays using various breast cancer cell lines. Cellular viability was assessed using the CellTiter-Glo® Luminescent Cell Viability Assay (Promega, Madison, Wis., USA) according to the manufacturer's protocol. KRAS mutant NSCLC cell lines were seeded into 96-well plates based on optimal growth rates determined empirically for each line. Twenty-four hours after plating, cells were dosed with graded concentrations of ganetespib for 72 h. CellTiter-Glo® was added (50% v/v) to the cells, and the plates incubated for 10 min prior to luminescent detection in a SpectraMax® Plus 384 microplate reader (Molecular Devices, Sunnyvale, Calif., USA). Data were normalized to percent of control and IC50 values used to determine the sensitivity of each line. For the comparative analysis study with MEK and PI3K/mTOR inhibitors, A549, H2009, Calu-1, and H358 cells were treated with graded concentrations of ganetespib, AZD6244, or BEZ235 for 72 h and cell viability measured as above.
Breast cancer, cell lines, marker status, and IC50 in response to ganetespib at 72 hr (viability by CTG).
Basal breast cancer is a subtype believed to be more stem like and less differentiated than luminal breast cancer, and therefore more aggressive with limited treatment options. […]

[4] = system: 15 KRAS mutant NSCLC cell lines; test: Viability of KRAS mutant NSCLC cell line panel, 72 h, CellTiter-Glo; format: cell-based; conditions: across 15 KRAS mutant NSCLC cell lines in vitro
Description: as §2

[5] = ganetespib combined with pemetrexed
[6] = low nanomolar ganetespib combined with camptothecin
[7] = ganetespib in combination with gemcitabine

CC(C)c1cc(-c2nnc(O)n2-c2ccc3c(ccn3C)c2)c(O)cc1O [ganetespib]
Enhanced cell death (H2030 cells; [5]): 2.4 fold | Fold increase in cytotoxicity (H2030 cells; [6]): 3.4 fold | Increase in cytotoxicity (H358 cells; [5]): marginal increase in cytotoxicity | Benefit of combination (H358 cells; [7]): no benefit | Fold increase in cytotoxicity (H358 cells; [6]): 1.4 fold | Increase in cytotoxicity (A549 cells; [5]): marginal increase in cytotoxicity | Increased cell death (A549 cells; [7]): 1.4 fold | Enhanced cell death (H2009 cells; [5]): 1.5 fold | Increased cell death (H2009 cells; [7]): 2.3 fold | Fold increase in cytotoxicity (H2009 cells; [6]): 1.5 fold | IC50 (GCIY): 9 nM | IC50 (SNU-1): 6 nM | CBR (CR + PR + SD > 6 months) (locally advanced or MBC; ER+/HER2− (N = 6)): 0 | CR (locally advanced or MBC; ER+/HER2− (N = 6)): 0 | ORR (locally advanced or MBC; ER+/HER2− (N = 6)): 0 | PR (locally advanced or MBC; ER+/HER2− (N = 6)): 0 | CBR (CR + PR + SD > 6 months) (locally advanced or MBC; HER2+ (N = 13)): 2 (9%) | CR (locally advanced or MBC; HER2+ (N = 13)): 0 | ORR (locally advanced or MBC; HER2+ (N = 13)): 2 (9%) | PR (locally advanced or MBC; HER2+ (N = 13)): 2 | CBR (CR + PR + SD > 6 months) (locally advanced or MBC; TNBC (N = 3)): 0 | CR (locally advanced or MBC; TNBC (N = 3)): 0 | ORR (locally advanced or MBC; TNBC (N = 3)): 0 | PR (locally advanced or MBC; TNBC (N = 3)): 0 | CBR (CR + PR + SD > 6 months) (locally advanced or MBC; Total (N = 22)): 2 (9%) | CR (locally advanced or MBC; Total (N = 22)): 0 | PR (locally advanced or MBC; Total (N = 22)): 2 (9%) | ORR (locally advanced or MBC; Total (N = 22), 200 mg/m^2 once weekly for 3 weeks, one week off): 2 (9%) | Tolerability (locally advanced or MBC; single agent, expected GI toxicity mild in nature and manageable): well tolerated | Cell viability after a 72 hr exposure ([1]; Detroit 562): A fraction of cells remained viable | IC50 ([1]; Homo sapiens, Detroit 562, single agent viability, 72 hr): 42 nM | Increase in cell death versus monotherapy ([2]; ganetespib combined with alkylating agents): ≤ 61% | Increase in cell death versus monotherapy ([2]; ganetespib combined with anti-mitotics): up to 44% | Increase in cell death versus monotherapy ([2]; ganetespib combined with topoisomerase inhibitors): ≤ 26% | Greater activity than monotherapy ([2]; low dose of ganetespib combined with MEK inhibitors): up to 77% | Greater activity than monotherapy ([2]; low dose of ganetespib combined with PI3K/mTOR inhibitors): ≤ 42% | Tumor growth inhibition in the combination arm ([3]; ganetespib combined with a PI3K/mTOR inhibitor): considerable improvement in tumor growth inhibition | Growth of KRAS mutant NSCLC tumor xenografts ([3]; single agent): effectively suppressed the growth | Tumor regression ([3]; single agent): did not induce tumor regression | Anticancer activity in the basal line MDA-MB-231 (MDA-MB-231; 72 hr viability assay, FIG. 1): highly potent, killing all the cells | IC50 (MDA-MB-231; Homo sapiens, MDA-MB-231, Basal B, 72 hr, viability by CTG): 24 nM | IC50 [4]: 24 nM
